Each structure is given as a SMILES string.

For assay [1], the target named is Cyclin-dependent kinase 2 (Homo sapiens, UniProt P24941).
In assay [2] the target is Cyclin-dependent kinase 4 (Homo sapiens, UniProt P11802).
Cyclin-dependent kinase 4, sequence (P11802 whole entry): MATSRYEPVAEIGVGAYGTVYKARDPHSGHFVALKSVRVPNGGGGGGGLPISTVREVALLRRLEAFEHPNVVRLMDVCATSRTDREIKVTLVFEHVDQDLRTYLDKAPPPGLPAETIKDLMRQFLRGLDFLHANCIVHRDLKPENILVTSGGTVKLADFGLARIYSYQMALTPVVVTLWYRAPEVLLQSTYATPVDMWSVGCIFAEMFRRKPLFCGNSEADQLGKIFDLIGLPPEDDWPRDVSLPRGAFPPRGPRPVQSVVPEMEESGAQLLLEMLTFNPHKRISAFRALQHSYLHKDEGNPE
Description: Inhibitory activity against human CDK4 (Cyclin dependent kinase 4)

Usually Ki stands for the equilibrium dissociation constant of an inhibitor or competing ligand from its target. Regarding `Cc1nc(C)c(-c2ccnc(Nc3ccccc3)n2)s1`, the inhibitory constant (Ki) is 0.08 µM in assay [1] and 2.6 µM in assay [2]. The matching figures for `Cc1nc(N)sc1-c1ccnc(Nc2ccc(O)cc2)n1`: 0.03 µM and 0.32 µM. `Cc1nc(C)c(-c2ccnc(N)n2)s1`: in assay [2], the Ki came to 16 µM.

Take `Cc1nc(N(C)C)sc1-c1ccnc(Nc2cccc([N+](=O)[O-])c2)n1`: the figures for the Ki in assay [1] and in assay [2] were 0.06 µM and 5.3 µM, respectively. For `CCNc1nc(C)c(-c2ccnc(Nc3cccc(O)c3)n2)s1`, in that order: over 10 µM and over 20 µM. For `Cc1nc(C)c(-c2ccnc(N(C)C)n2)s1`, in that order: over 20 µM and over 20 µM. The matching figures for `Cc1nc(C)c(-c2ccnc(Nc3cccc(F)c3)n2)s1`: 0.1 µM and 0.9 µM.

For `Cc1nc(C)c(-c2ccnc(Nc3ccccc3Cl)n2)s1`, the inhibitory constant (Ki) in assay [1] and in assay [2] was over 20 µM each time. `CNc1nccc(-c2sc(C)nc2C)n1`: the Ki in assay [1] and in assay [2] was over 20 µM each time.

In the case of `Cc1nc(C)c(-c2ccnc(Nc3cccc(Cl)c3)n2)s1`, the values for the Ki in assay [1] and in assay [2] were 0.67 µM and 9.4 µM, respectively. The matching figures for `Cc1nc(C)c(-c2ccnc(Nc3ccc(O)cc3)n2)s1`: 0.14 µM and 0.32 µM. For `CNc1nc(C)c(-c2ccnc(Nc3cccc([N+](=O)[O-])c3)n2)s1`, in that order: 0.8 µM and 1.6 µM. Consider `Cc1nc(C)c(-c2ccnc(Nc3cccc(C(F)(F)F)c3)n2)s1`, for which the Ki in assay [1] and in assay [2] was over 20 µM throughout. As to `Cc1nc(C)c(-c2ccnc(Nc3ccccc3F)n2)s1`, the Ki in assay [1] and in assay [2] was 1.2 µM throughout.

Turning to `Cc1nc(C)c(-c2ccnc(Nc3ccc(Cl)cc3)n2)s1`, the Ki in assay [1] is 2.5 µM; in assay [2] it was over 20 µM. On to `Cc1nc(C)c(-c2ccnc(Nc3ccccc3C(F)(F)F)n2)s1`, for which the Ki in assay [1] and in assay [2] was over 20 µM each time. On to `Cc1nc(C)c(-c2ccnc(Nc3ccc([N+](=O)[O-])cc3)n2)s1`, for which the values for the inhibitory constant (Ki) in assay [1] and in assay [2] were 4.1 µM and over 20 µM, respectively. For `Cc1nc(C)c(-c2ccnc(Nc3cccc(N)c3)n2)s1`, in that order: 0.4 µM and 10.6 µM.

In the case of `Cc1nc(C)c(-c2ccnc(Nc3cccc(C#N)c3)n2)s1`, the values for the Ki in assay [1] and in assay [2] were 0.3 µM and 0.48 µM, respectively. For `CNc1nc(C)c(-c2ccnc(Nc3cccc(O)c3)n2)s1`, in that order: 0.11 µM and 0.37 µM. As for `Cc1nc(C)c(-c2ccnc(N(C)c3cccc([N+](=O)[O-])c3)n2)s1`, the Ki in assay [1] and in assay [2] was over 20 µM each time. As for `Cc1nc(-c2ccccn2)sc1-c1ccnc(Nc2cccc([N+](=O)[O-])c2)n1`, the inhibitory constant (Ki) in assay [1] and in assay [2] was over 20 µM throughout.

Values taken from ChEMBL document CHEMBL1149116, “2-Anilino-4-(thiazol-5-yl)pyrimidine CDK inhibitors: synthesis, SAR analysis, X-ray crystallography, and biological activity” (J Med Chem, 2004).
